Assay results published in US10736865B2, “Pharmaceutical formulations comprising 9-cis-retinyl esters in a lipid vehicle” (RETINAGENIX THERAPEUTICS, INC., priority 2009, dated 2020).

Assays:
Rpe65^−/− mice [1] = conditions: mouse, in vivo
Experimental: (§3) Electroretinogram (ERG)—ERGs were recorded on anesthetized mice as described in, e.g., Maeda A, et al. Role of photoreceptor-specific retinol dehydrogenase in the retinoid cycle in vivo.
(§4) Briefly, mice first were dark-adapted overnight prior to recording. Then under a safety light, mice were anesthetized by intraperitoneal injection of 20 μl/g body weight of 6 mg/ml ketamine and 0.44 mg/ml xylazine diluted with 10 mM sodium phosphate, pH 7.2, containing 100 mM NaCl. Pupils were dilated with 1% tropicamide. A contact lens electrode was placed on the eye and a reference electrode and ground electrode were positioned on the ear and tail, respectively. ERGs were recorded with the universal testing and electrophysiologic system (UTAS) E-3000 (LKC Technologies, Inc.).
(§5) Single-flash recording—White light flash stimuli were employed with a range of intensities (from −3.7 to 2.8 log cd·s·m^·2), and flash durations were adjusted according to intensity (from 20 μs to 1 ms). Two to five recordings were made at sufficient intervals between flash stimuli (from 10 s to 10 min) to allow mice to recover. Typically, four to eight animals were used for recording each point. The one-way ANOVA test was used for statistical analysis of responses.
To test this directly, 5-week-old Rpe65^−/− mice were gavaged daily with 9-cis-R-Ac in soybean oil at doses of 1, 4, or 12.5 mg/kg for 14 days. […]

Rpe65^−/− mice [2] = conditions: mouse, in vivo; remark: listed apart in the source
Experimental: as §3, §4
(§6) Single-flash recording—White light flash stimuli were employed with a range of intensities (from −3.7 to 2.8 log cd·s·m^·2), and flash durations were adjusted according to intensity (from 20 μs to 1 ms). Two to five recordings were made at sufficient intervals between flash stimuli (from 10 s to 10 min) to allow mice to recover. Typically, four to eight animals were used for recording each point. The one-way ANOVA test was used for statistical analysis of responses. […]

[3] = Retinoid analyses of eye and liver after 8-week regimens; assay type: in vivo, Rpe65^−/− mice; conditions: 8-week intermittent and daily regimens
Experimental: (§1) Analyses of Retinoic Acid and Non-polar Retinoids—All experimental procedures related to extraction, retinoid derivatization and separation of retinoids were done under dim red light provided by a Kodak No. 1 safelight filter (transmittance>560 nm). Retinoic acid extraction from liver was performed as formerly described in, e.g., Batten M L. et al. supra. Analyses of polar retinoids in plasma, eye and liver were performed with an Agilent 1100 HPLC and two tandem normal phase columns: a Varian Microsorb Silica 3 μm, 4.6×100 mm (Varian, Palo Alto, Calif.) and an Ultrasphere-Si, 5 μm, 4.6×250 mm column (Aleman T S, et al. supra). An isocratic normal phase system of hexane: 2-propanol:glacial acetic acid (1000:4.3:[…]; v/v/v) was used for elution at a flow rate of 1 ml/min at 20° C. with detection at 355 nm. Calibration was done with standards of all-trans-retinoic acid and 9-cis-retinoic acid purchased from Sigma-Aldrich. Analyses of non-polar retinoids in plasma, eye and liver were carried out by normal phase HPLC (Ultrasphere-Si, 5 μm, 4.6×250 mm, Beckman, Fullerton, Calif.) with 10% ethyl acetate and 90% hexane at a flow rate of 1.4 ml/min with detection at 325 nm by an HP1100 HPLC with a diode array detector and HP Chemstation A.03.03 software.
(§2) The dosing regimens are illustrated in FIG. 7.

[4] = Plasma retention of 9-cis-retinyl acetate metabolites after single gastric gavage; assay type: in vivo, C57/Bl6 mice; conditions: for Absorption (plasma levels of fatty acid 9-cis-retinyl esters and 9-cis-retinol): compared to canola and rapeseed oils, 50 mg/kg gavage
Experimental: as §1
Several different oil-based preparations were prepared to test the absorption levels of 9-cis-R-Ac in plasma. More specifically, a single 50 mg/kg dose of 9-cis-retinyl acetate (50 mg/kg) suspended in 4 different vehicle oils was administrated by gastric gavage to 5-week-old C57/Bl6 mice and retinoid levels were determined in the plasma thereafter (n=5 for each time point per group).

[5] = Clinical side effects after single doses of 9-cis-R-Ac; assay type: in vivo, Rpe65^−/− mice; conditions: single doses up to 50 mg/kg in soybean oil
Experimental: Single doses (2-50 mg/kg) of 9-cis-R-Ac in soybean oil were administered to 5-week-old Rpr65Rpe65^−/− mice to test whether the pre-prodrug 9-cis-R-Ac was capable of delivering artificial chromophore to the eye.
(§7) Following dark-adaption for 3 days post-gavage, scotopic single flash ERGs were recorded and eyes were collected to assess 9-cis-retinal levels.

[6] = Retinoid levels in eyes after single doses of 9-cis-R-Ac; assay type: in vivo, Rpe65^−/− mice
Experimental: as §1

Rpe65^−/− mice [7] = conditions: mouse, in vivo; remark: listed apart in the source
Experimental: as §3, §4, §6, §7

[8] = 9-cis-retinal levels in the eye after 3 daily doses; assay type: in vivo, Rpe65^−/− mice
Experimental: as §1

Rpe65^−/− mice [9] = assay: Retinal histology after intermittent and daily administration for 8 weeks; assay type: in vivo; conditions: for Retinal cross-section morphology: 8 weeks
From the text: Histology and Immunohistochemistry—Histological procedures employed for the eye analyses as described in Maeda A, et al. supra.
as §2

Rpe65^−/− mice [10] = conditions: mouse, in vivo; remark: listed apart in the source
Experimental: as §4, §5
Rpe65^−/− mice were split into two groups (an intermittent group and a daily group), each treated for a total of 8 weeks with 1 or 4 mg/kg of 9-cis-R-Ac. […] ERGs were recorded at day 28 and again at day 56, after which tissues were collected for retinoid analyses of the eye and liver and histology of the eye.

[11] = Retinoid levels in eyes and liver after 14 days of daily dosing; assay type: in vivo, Rpe65^−/− and C57Bl/6 mice
Experimental: as §1

For `CC(=O)OC/C=C(C)/C=C/C=C(C)\C=C\C1=C(C)CCCC1(C)C` [9-cis-R-Ac, 9-cis-retinyl acetate], the “Lowest daily test dose evoking significant improvement in retinal function” value (Rpe65^−/− mice [1]) was 1 mg/kg, the “Duration of positive ERG effect after treatment” value (Rpe65^−/− mice [2]) was 4 to 6 days and the “9-cis-retinal in the eyes” value [3] was “detected in a dose-dependent manner”. The “Plasma levels of all-trans-retinol and fatty acid all-trans-retinyl esters” value ([4]; among the test vehicles and during the 23 h test period) was “did not differ significantly”, the “Absorption (plasma levels of fatty acid 9-cis-retinyl esters and 9-cis-retinol)” value ([4]; in soybean oil) was “best absorption” and the “Absorption (plasma levels of fatty acid 9-cis-retinyl esters and 9-cis-retinol)” value ([4]; in sunflower oil) was “best absorption”. The Time of highest plasma levels of 9-cis-retinoids ([4]; single 50 mg/kg gastric gavage, C57/Bl6 mice) was 3 h, the Clinical side effects [5] was “no obvious clinical side effects” and the 9-cis-retinol in eyes ([6]; single dose 50 mg/kg) was 43 pmol/eye. The 11-cis-retinoids in eyes ([6]; single doses) was “No 11-cis-retinoids were detected”, the “9-cis-retinal in the eye” value ([6]; single doses 2 and 4 mg/kg) was “trace levels” and the “Fatty acid 9-cis-retinyl esters in eyes” value ([6]; single doses, all analyzed eyes) was “No fatty acid 9-cis-retinyl esters were detected”. The “ERG effect of lower doses” value (Rpe65^−/− mice [7]) was “positive ERG effects”, the “Lowest tested dose that provided significant ERG improvement” value (Rpe65^−/− mice [7]) was 6.25 mg/kg and the “9-cis-retinal in the retinas” value ([8]; day 4, all treated mice (1, 4, 12.5 mg/kg/day for 3 days)) was “detected”. The “9-cis-retinal in the retinas” value ([8]; day 9, after 3 daily doses) was “No 9-cis-retinal was found”, the Retinal cross-section morphology (Rpe65^−/− mice [9]; 1 mg/kg by either schedule, vs control mice) was “no significant change” and the Retinal cross-section morphology (Rpe65^−/− mice [9]; 4 mg/kg daily or 4 mg/kg intermittent) was “improvement of rod outer segment (ROS) morphology”. The “Effect on retina (photoreceptor outer segment lengths, nuclei in outer nuclear layer)” value (Rpe65^−/− mice [9]; 8-week administration) was “dose-dependent protective effect”, the “Dose sufficient for significant improvement in ERG responses over control” value (Rpe65^−/− mice [10]) was 1 mg/kg and the 9-cis-retinal in eyes ([11]; 1 mg/kg daily for 14 days) was “No 9-cis-retinal was detected”. The 9-cis-retinal in eyes ([11]; 4 mg/kg daily for 14 days) was 38 ± 4 pmol, the 9-cis-retinal in eyes ([11]; 12.5 mg/kg daily for 14 days) was 95 ± 14 pmol and the “Fatty acid 9-cis-retinyl esters in eyes” value ([11]; 4 and 12.5 mg/kg/day groups, 14 days) was 1 pmol/eye. The “Fatty acid 9-cis-retinyl esters in livers” value ([11]; daily dosing 14 days, C57Bl/6 and Rpe65^−/− mice) was “accumulate in a dose-dependent manner” and the “all-trans-retinol and 9-cis-retinol in eyes” value ([11]; daily dosing 14 days, any group) was “Neither all-trans-retinol nor 9-cis-retinol was found”.
